Results reported in the NIST ThermoML archive (doi:10.1016/j.fluid.2015.04.031).
± gives the expanded uncertainty stated by the source.

Settings: Liquid; for mass density: 101.33 kPa, Vibrating tube method; for vapor or sublimation pressure: Closed cell (Static) method

## CCCC[N+]1(C)CCCC1.N#CC(=C=[N-])C#N [1-butyl-1-methylpyrrolidinium tricyanomethanide]
298.15 K
  mass density: 1006.75 ± 1.1 kg/m3

## CCCC[n+]1ccc(C)cc1.N#CC(=C=[N-])C#N [1-butyl-4-methylpyridinium tricyanomethanide]
298.15 K
  mass density: 1036.62 ± 1.2 kg/m3

## c1ccncc1 [pyridine]
293.15 K
  vapor or sublimation pressure: 2.1 ± 0.1 kPa
298.15 K
  mass density: 982.85 ± 0.11 kg/m3
  vapor or sublimation pressure: 2.77 ± 0.11 kPa
303.15 K
  vapor or sublimation pressure: 3.62 ± 0.11 kPa
308.15 K
  vapor or sublimation pressure: 4.68 ± 0.11 kPa
313.15 K
  vapor or sublimation pressure: 6 ± 0.11 kPa

## c1ccsc1 [thiophene]
293.15 K
  vapor or sublimation pressure: 8.19 ± 0.13 kPa
298.15 K
  mass density: 1058.56 ± 0.12 kg/m3
  vapor or sublimation pressure: 10.4 ± 0.14 kPa
303.15 K
  vapor or sublimation pressure: 12.97 ± 0.15 kPa
308.15 K
  vapor or sublimation pressure: 16.1 ± 0.17 kPa
313.15 K
  vapor or sublimation pressure: 19.4 ± 0.17 kPa
